Results taken from patent US9969698B2, “Quinoxalinyl-piperazinamide methods of use” (REXAHN PHARMACEUTICALS, INC., priority 2015, dated 2018).
Marks after values point to notes of the source that are not given here.

How the values were obtained:
[1] = test system: pooled human liver microsomes; assay: RX-5902 metabolism in liver microsomes with CYP450 isozyme-selective chemical inhibitors; format: in vitro ADME
Procedure: Two in vitro studies were performed to examine the involvement of specific cytochrome P450 (CYP450) isozymes in the in vitro metabolism of RX-5902. In the first study, the loss of RX-5902 was measured after incubation with expressed CYP450 isozymes (1A2, 2A6, 2B6, 2C8, 2C9, 2C19, 2D6, 3A4 and 3A5). […] In the second study, RX-5902 was incubated with pooled human liver microsomes in the presence of CYP450 isozyme-selective chemical inhibitors. The inhibitors tested were selective for 1A2, 2A6, 2B6, 2C8, 2C9, 2C19, 2D6, and 3A4/5.

[2] = test system: human pancreas tumor xenografts (MiaPaca-2); assay: Pancreatic cancer xenograft model; format: in vivo, mice; conditions: oral, 5ON/2OFF
Excerpt: The efficacy of RX-5902 in human cancer xenograft mouse models is examined. Female nude mice (nu/nu, Harlan or CRL: NU(NCr)-Foxn1^nu, Charles River), 9-10 weeks old, with a body weight (BW) range of 15-30 g on day 1 of the study, are fed ad libitum water (reverse osmosis, 1 ppm C1), and NIH 31 Modified and Irradiated Lab Diet® consisting of 18.0% crude protein, 5.0% crude fat, and 5.0% crude fiber. The mice are housed on irradiated Enrich-o'Cobs™ Laboratory Animal Bedding in static microisolators on a 12-hour light cycle at 20-22° C. (68-72° F.) and 40-60% humidity. […]
(§1) The cells are harvested during exponential growth and re-suspended with phosphate buffered saline. Each test animal receives a subcutaneous (s.c.) injection of 5×10^6 tumor cells into the right flank and tumor growth is monitored as the average tumor size approaches the target range of 80-300 mm^3. […] Tumors and body weights are measured regularly until the study is terminated.
(§2) Tumors are measured in two dimensions using calipers, and volume is calculated using the formula: […]
Treatment efficacy is determined using data from Day 15. The MTV (n), the median tumor volume for the number of animals, n, on Day 15, is determined for each group. […]
Animals are monitored individually for tumor growth until Day 71. […] The time to endpoint (TTE) for each mouse is calculated with the following equation: […]

[3] = test system: human colorectal tumor xenografts (Colo205); assay: Colorectal cancer xenograft model; format: in vivo, mice; conditions: oral
Excerpt: (§3) The efficacy of RX-5902 in human cancer xenograft mouse models is examined. Female nude mice (nu/nu, Harlan or CRL: NU(NCr)-Foxn1^nu, Charles River), 9-10 weeks old, with a body weight (BW) range of 15-30 g on day 1 of the study, are fed ad libitum water (reverse osmosis, 1 ppm C1), and NIH 31 Modified and Irradiated Lab Diet® consisting of 18.0% crude protein, 5.0% crude fat, and 5.0% crude fiber. The mice are housed on irradiated Enrich-o'Cobs™ Laboratory Animal Bedding in static microisolators on a 12-hour light cycle at 20-22° C. (68-72° F.) and 40-60% humidity. The study complies with the recommendations of the Guide for, Care and Use of Laboratory Animals with respect to restraint, husbandry, surgical procedures, feed and fluid regulation, and veterinary care.
(§4) Various human tumor cell lines (e.g., HCT116, HT29, H460, H69, Caki-1, CaSki, MiaPaca2, BxPC3 and Colo 205 cells [ATCC, Manassas, Va., USA]) are cultured according to ATCC's instruction. […]
as §1, §2
(§5) Treatment efficacy is determined using data from Day 15. The MTV (n), the median tumor volume for the number of animals, n, on Day 15, is determined for each group. Percent tumor growth inhibition (% TGI) is defined as the difference between the MTV of the designated control group (vehicle administration) and the MTV of the drug-treated group, expressed as a percentage of the MTV of the control group: % TGI=[1−(MTVdrug treated/MTVcontrol)]×100 The data set for TGI analysis includes all animals in a group, except those that die due to treatment-related (TR) or non-treatment-related (NTR) causes. […]
(§6) Animals are monitored individually for tumor growth until Day 71. […]

[4] = test system: human breast tumor xenografts (MDA-MB-231); assay: Breast cancer xenograft model; format: in vivo, mice; conditions: for TGI % (first value of the cell) / TGI % (second value of the cell): oral
Excerpt: as §3
Various human tumor cell lines (e.g., HCT116, HT29, H460, H69, Caki-1, CaSki, MiaPaca2, BxPC3 and Colo 205 cells [ATCC, Manassas, Va., USA]) are cultured according to ATCC's instruction. The tumor cells are cultured in tissue culture flasks in a humidified incubator at 37° C., in an atmosphere of 5% CO2 and 95% air.
The cells are harvested during exponential growth and re-suspended with phosphate buffered saline. Each test animal receives a subcutaneous (s.c.) injection of 5×10^6 tumor cells into the right flank and tumor growth is monitored as the average tumor size approaches the target range of 80-300 mm^3. When tumors reach the target size mice are randomized into several groups (n=10-20) and treatment with various regimens of RX-5902 or a positive (e.g., gemcitabine) or negative control (e.g.; vehicle, saline) is initiated. Tumors and body weights are measured regularly until the study is terminated.
Tumors are measured in two dimensions using calipers, and volume is calculated using the formula:
[formula] where w=width and 1=length, in mm, of the tumor. Tumor weight may be estimated with the assumption that 1 mg is equivalent to 1 mm^3 of tumor volume.
Treatment begins on Day 1 in eight groups of mice (n=10-20/group) with established subcutaneous tumors of a particular cell line. Each group is treated according to the study design. All doses are adjusted per body weight. Animals in each group are divided for efficacy and sampling purposes. There are also groups designated to vehicle control and no treatment for sampling purposes.
Treatment efficacy is determined using data from Day 15. The MTV (n), the median tumor volume for the number of animals, n, on Day 15, is determined for each group. Percent tumor growth inhibition (% TGI) is defined as the difference between the MTV of the designated control group (vehicle administration) and the MTV of the drug-treated group, expressed as a percentage of the MTV of the control group: % TGI=[1−(MTVdrug treated/MTVcontrol)]×100 The data set for TGI analysis includes all animals in a group, except those that die due to treatment-related (TR) or non-treatment-related (NTR) causes. An agent that produces at least 60% TGI in this assay is considered to be potentially therapeutically active.
Animals are monitored individually for tumor growth until Day 71. The study protocol specifies a tumor growth delay assay based on the median time to endpoint (TTE) in a treated group versus the control group. Each animal is euthanized for tumor progression (TP) when its tumor reaches the 2000 mm^3 volume endpoint. The time to endpoint (TTE) for each mouse is calculated with the following equation:
[formula] where b is the intercept and m is the slope of the line obtained by linear regression of a log-transformed tumor growth data set. The data set is comprised of the first observation that exceeds the study endpoint volume and the three consecutive observations that immediately precede the attainment of the endpoint volume. […] In instances in which the log-transformed calculated TTE precedes the day prior to reaching endpoint or exceeds the day of reaching tumor volume endpoint, a linear interpolation is performed to approximate TTE. […]

[5] = test system: human ovarian tumor xenografts (A-2780); assay: Cisplatin-resistant ovarian cancer xenograft model; format: in vivo, mice; conditions: oral
Excerpt: as §3, §4, §1, §2, §5, §6

Compound: COc1cc(OC)cc(N2CCN(C(=O)Nc3nc4cc(F)ccc4nc3OC)CC2)c1 [RX-5902, 4-(3,5-dimethoxyphenyl)-N-(7-fluoro-3-methoxyquinoxalin-2-yl)piperazine-1-carboxamide]
- inhibition of RX-5902 metabolism ([1]; in the presence of a CYP3A4/5-selective inhibitor (ketoconazole)): Marked inhibition
- inhibition of RX-5902 metabolism ([1]; with inhibitors of the other isozymes (1A2, 2A6, 2B6, 2C8, 2C9, 2C19, 2D6)): no significant inhibition
- TGD % ([2]; 50 mg/kg): 83%^
- TGD % ([2]; 70 mg/kg): 339%^
- TGI % ([3]; 160 mg/kg QWK): 0%*
- TGI % ([3]; 320 mg/kg QWK): 13%*
- TGI % ([3]; 600 mg/kg QWK): 33%*
- TGI % (first value of the cell) ([4]; 160 mg/kg QWK): 44%
- TGI % (second value of the cell) ([4]; 160 mg/kg QWK): 39%
- TGI % (first value of the cell) ([4]; 320 mg/kg QWK): 65%
- TGI % (second value of the cell) ([4]; 320 mg/kg QWK): 82%
- TGI % (first value of the cell) ([4]; 600 mg/kg QWK): 83%
- TGI % (second value of the cell) ([4]; 600 mg/kg QWK): 165%
- survival in treated mice ([4]; oral, 160, 320 and 600 mg/kg weekly): extending the survival
- TGI % ([5]; 160 mg/kg QWK): 43%*
- TGI % ([5]; 320 mg/kg QWK): 43%*
- TGI % ([5]; 600 mg/kg QWK): 75%*
